target: human MER (528-end) (Homo sapiens (Human), UniProt Q12866); experiment: HTRF Kinase Activity Biochemical Assay (KinEASE-TK); details: 10 uM ATP
Outline: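 Activity read-out is the HTRF ratio (665 nm over 620 nm emission, ×10,000; excitation 340 nm) after 1 h detection with 0.375 nM Eu3+-cryptate anti-TK antibody plus 0.062 uM SA-XL665. Preceding kinase step: human MER (528-end), biotinylated TK substrate, 1 h, room temperature.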

Chain of human MER (528-end) (Q12866 528-999 limits assumed): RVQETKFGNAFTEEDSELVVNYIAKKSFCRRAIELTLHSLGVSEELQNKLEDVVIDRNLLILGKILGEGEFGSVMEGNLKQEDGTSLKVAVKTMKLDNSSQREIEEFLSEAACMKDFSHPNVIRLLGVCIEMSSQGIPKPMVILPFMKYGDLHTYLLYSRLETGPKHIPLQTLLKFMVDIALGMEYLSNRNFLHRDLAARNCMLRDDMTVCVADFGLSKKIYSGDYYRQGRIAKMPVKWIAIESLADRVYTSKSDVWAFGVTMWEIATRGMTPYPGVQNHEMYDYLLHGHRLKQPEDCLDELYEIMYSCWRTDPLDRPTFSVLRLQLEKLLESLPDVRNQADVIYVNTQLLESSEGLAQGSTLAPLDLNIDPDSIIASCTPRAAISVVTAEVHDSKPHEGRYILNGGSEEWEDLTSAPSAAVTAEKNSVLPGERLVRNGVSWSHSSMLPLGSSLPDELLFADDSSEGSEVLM

| SMILES | IC50 |
| --- | --- |
| Cn1cc(-c2cnc(N)c(C(=O)N[C@@H]3CCN(C(=O)Oc4ccc(Cl)cc4N)C3)c2)cn1 [Example 99, 2-amino-4-chlorophenyl (R)-3-(2-amino-5-(1-methyl-1H-pyrazol-4-yl)nicotinamido)pyrrolidine-1-carboxylate] | > 1 µM |
| Cn1cc(-c2cnc(N)c(C(=O)N[C@@H]3CCN(C(=O)Oc4cc([N+](=O)[O-])ccc4N)C3)c2)cn1 [Example 100, 2-amino-5-nitrophenyl (R)-3-(2-amino-5-(1-methyl-1H-pyrazol-4-yl)nicotinamido)pyrrolidine-1-carboxylate] | > 1 µM |
| Cn1cc(-c2cnc(N)c(C(=O)N[C@@H]3CCN(C(=O)Oc4cccc(O)c4)C3)c2)cn1 [Example 101, 3-hydroxyphenyl (R)-3-(2-amino-5-(1-methyl-1H-pyrazol-4-yl)nicotinamido)pyrrolidine-1-carboxylate] | > 1 µM |
| Cn1cc(-c2cnc(N)c(C(=O)N[C@@H]3CCN(C(=O)Oc4ccc(Oc5ccccc5)cc4)C3)c2)cn1 [Example 102, 4-phenoxyphenyl (R)-3-(2-amino-5-(1-methyl-1H-pyrazol-4-yl)nicotinamido)pyrrolidine-1-carboxylate] | 0.1 to 1 µM |
| Cn1cc(-c2cnc(N)c(C(=O)N[C@@H]3CCN(C(=O)Oc4ccc5ccccc5c4)C3)c2)cn1 [Example 103, naphthalen-2-yl (R)-3-(2-amino-5-(1-methyl-1H-pyrazol-4-yl)nicotinamido)pyrrolidine-1-carboxylate] | 0.1 to 1 µM |
| Cn1cc(-c2cnc(N)c(C(=O)N[C@@H]3CCN(C(=O)Oc4ccc5cc(O)ccc5c4)C3)c2)cn1 [Example 104, 6-hydroxynaphthalen-2-yl (R)-3-(2-amino-5-(1-methyl-1H-pyrazol-4-yl)nicotinamido)pyrrolidine-1-carboxylate] | 0.1 to 1 µM |
| Cn1cc(-c2cnc(N)c(C(=O)N[C@@H]3CCN(C(=O)O[C@H]4C[C@H]5CC[C@@H]4C5)C3)c2)cn1 [Example 105, (1R,2S,4S)-bicyclo[2.2.1]heptan-2-yl (R)-3-(2-amino-5-(1-methyl-1H-pyrazol-4-yl)nicotinamido)pyrrolidine-1-carboxylate] | > 1 µM |
| Cn1cc(-c2cnc(N)c(C(=O)N[C@@H]3CCN(C(=O)OC4CCCC4)C3)c2)cn1 [Example 106, cyclopentyl (R)-3-(2-amino-5-(1-methyl-1H-pyrazol-4-yl)nicotinamido)pyrrolidine-1-carboxylate] | > 1 µM |
| Cn1cc(-c2cnc(N)c(C(=O)N[C@@H]3CCN(C(=O)OC4CCCCCC4)C3)c2)cn1 [Example 107, cycloheptyl (R)-3-(2-amino-5-(1-methyl-1H-pyrazol-4-yl)nicotinamido)pyrrolidine-1-carboxylate] | > 1 µM |
| Cn1cc(-c2cnc(N)c(C(=O)N[C@@H]3CCN(C(=O)O[C@H]4C[C@@H]5CC[C@H]4C5)C3)c2)cn1 [Example 109, (1S,2S,4R)-bicyclo[2.2.1]heptan-2-yl (R)-3-(2-amino-5-(1-methyl-1H-pyrazol-4-yl)nicotinamido)pyrrolidine-1-carboxylate] | > 1 µM |
| Cn1cc(-c2cnc(N)c(C(=O)N[C@@H]3CCN(C(=O)Oc4cccc(Oc5ccccc5)c4)C3)c2)cn1 [Example 110, 3-phenoxyphenyl (R)-3-(2-amino-5-(1-methyl-1H-pyrazol-4-yl)nicotinamido)pyrrolidine-1-carboxylate] | 0.1 to 1 µM |
| Cn1cc(-c2cnc(N)c(C(=O)N[C@@H]3CCN(C(=O)Oc4ccc(Oc5ccc([N+](=O)[O-])cc5)cc4)C3)c2)cn1 [Example 111, 4-(4-nitrophenoxy)phenyl (R)-3-(2-amino-5-(1-methyl-1H-pyrazol-4-yl)nicotinamido)pyrrolidine-1-carboxylate] | > 1 µM |
| Cn1cc(-c2cnc(N)c(C(=O)N[C@@H]3CCN(C(=O)Oc4ccc(Oc5ccc(N)cc5)cc4)C3)c2)cn1 [Example 112, 4-(4-aminophenoxy)phenyl (R)-3-(2-amino-5-(1-methyl-1H-pyrazol-4-yl)nicotinamido)pyrrolidine-1-carboxylate] | 0.1 to 1 µM |
| Cn1cc(-c2cnc(N)c(C(=O)N[C@@H]3CCN(C(=O)Oc4ccc(Oc5ccc(CO)cc5)cc4)C3)c2)cn1 [Example 114, 4-(4-(hydroxymethyl)phenoxy)phenyl (R)-3-(2-amino-5-(1-methyl-1H-pyrazol-4-yl)nicotinamido)pyrrolidine-1-carboxylate] | 0.1 to 1 µM |
| CN(C)Cc1ccc(Oc2ccc(OC(=O)N3CC[C@@H](NC(=O)c4cc(-c5cnn(C)c5)cnc4N)C3)cc2)cc1 [Example 115, 4-(4-((dimethylamino)methyl)phenoxy)phenyl (R)-3-(2-amino-5-(1-methyl-1H-pyrazol-4-yl)nicotinamido)pyrrolidine-1-carboxylate] | 0.1 to 1 µM |
| Cn1cc(-c2cnc(N)c(C(=O)N[C@@H]3CCN(C(=O)Oc4cc(Cl)cc(Cl)c4)C3)c2)cn1 [Example 116, 3,5-dichlorophenyl (R)-3-(2-amino-5-(1-methyl-1H-pyrazol-4-yl)nicotinamido)pyrrolidine-1-carboxylate] | 0.1 to 1 µM |
| CN1CCC(n2cc(-c3cnc(N)c(C(=O)N[C@@H]4CCN(C(=O)Oc5ccccc5)C4)c3)cn2)CC1 [Example 119, phenyl (R)-3-(2-amino-5-(1-(1-methylpiperidin-4-yl)-1H-pyrazol-4-yl)nicotinamido)pyrrolidine-1-carboxylate] | > 1 µM |
| Cn1cc(-c2cnc(N)c(C(=O)N[C@@H]3CCN(C(=O)OC4CCC(c5ccccc5)CC4)C3)c2)cn1 (stereo partly drawn) [Example 125, 4-phenylcyclohexyl (R)-3-(2-amino-5-(1-methyl-1H-pyrazol-4-yl)nicotinamido)pyrrolidine-1-carboxylate] | > 1 µM |
| CN(C(=O)c1cc(-c2cnn(C)c2)cnc1N)[C@@H]1CCN(C(=O)Oc2cccc(-c3ccccc3)c2)C1 [Example 130, [1,1′-biphenyl]-3-yl (R)-3-(2-amino-N-methyl-5-(1-methyl-1H-pyrazol-4-yl)nicotinamido)pyrrolidine-1-carboxylate] | > 1 µM |
| Cn1cc(-c2cnc(N)c(C(=O)N[C@@H]3CCN(c4nc5ccccc5[nH]4)C3)c2)cn1 [Example 133, (R)—N-(1-(1H-benzo[d]imidazol-2-yl)pyrrolidin-3-yl)-2-amino-5-(1-methyl-1H-pyrazol-4-yl)nicotinamide] | > 1 µM |
| Cn1cc(-c2cnc(N)c(C(=O)N[C@@H]3CCN(c4ccccn4)C3)c2)cn1 [Example 135, (R)-2-amino-5-(1-methyl-1H-pyrazol-4-yl)-N-(1-(pyridin-2-yl)pyrrolidin-3-yl)nicotinamide] | > 1 µM |
| CCc1cnc(N2CC[C@@H](NC(=O)c3cc(-c4cnn(C)c4)cnc3N)C2)nc1 [Example 136, (R)-2-amino-N-(1-(5-ethylpyrimidin-2-yl)pyrrolidin-3-yl)-5-(1-methyl-1H-pyrazol-4-yl)nicotinamide] | > 1 µM |
| Cn1cc(-c2cnc(N)c(C(=O)N[C@@H]3CCN(c4ncc5ccccc5n4)C3)c2)cn1 [Example 137, (R)-2-amino-5-(1-methyl-1H-pyrazol-4-yl)-N-(1-(quinazolin-2-yl)pyrrolidin-3-yl)nicotinamide] | > 1 µM |
| CCOC(=O)c1csc(N2CC[C@@H](NC(=O)c3cc(-c4cnn(C)c4)cnc3N)C2)n1 [Example 139, ethyl (R)-2-(3-(2-amino-5-(1-methyl-1H-pyrazol-4-yl)nicotinamido)pyrrolidin-1-yl)thiazole-4-carboxylate] | > 1 µM |

Reference: patent US12378224B2 (Dong-A Socio Holdings Co., Ltd., priority 2016, dated 2025)
